Measured values from patent US9334286B2, “Pharmacologically active compounds” (Cancer Research Technology Limited, priority 2012, dated 2016).
pIC50: −log10 of the molar value.

Target: full length MPS1 (Homo sapiens (Human), UniProt P33981)
Assay: Measurement of inhibition of MPS1 kinase (Caliper EZ reader, fluorescent labelled peptide H236)
Assay type: biochemical
Conditions: full length MPS1 12.5 nM or 3 nM, peptide H236 5 μM, ATP 10 μM, 60 min at room temperature
Method: The reaction was carried out for 60 min at room temperature and stopped by the addition of buffer (10 μl) containing 20 mM EDTA, 0.05% (v/v) Brij-35, in 0.1M HEPES-buffered saline (Free acid, Sigma, UK). The plate was read on a Caliper EZ reader II (Caliper Life Sciences).
The reader provides a Software package (‘Reviewer’) which converts the peak heights into % conversion by measuring both product and substrate peak and also allows selection of control well which represent 0% and 100% inhibition respectively. The % inhibition of the compounds is calculated relative to the means of selected control wells. IC50s are determined by testing the compounds at a range of concentrations from 0.25 nM-100 μM. The % inhibitions at each concentration are then fitted to a 4 parameter logistic fit: y=(a+((b−a)/(1+((c/x^d)))) where a=asym min, b=asym max, c=IC50 and d=hill coefficient

Sequence of full length MPS1 (P33981 whole entry): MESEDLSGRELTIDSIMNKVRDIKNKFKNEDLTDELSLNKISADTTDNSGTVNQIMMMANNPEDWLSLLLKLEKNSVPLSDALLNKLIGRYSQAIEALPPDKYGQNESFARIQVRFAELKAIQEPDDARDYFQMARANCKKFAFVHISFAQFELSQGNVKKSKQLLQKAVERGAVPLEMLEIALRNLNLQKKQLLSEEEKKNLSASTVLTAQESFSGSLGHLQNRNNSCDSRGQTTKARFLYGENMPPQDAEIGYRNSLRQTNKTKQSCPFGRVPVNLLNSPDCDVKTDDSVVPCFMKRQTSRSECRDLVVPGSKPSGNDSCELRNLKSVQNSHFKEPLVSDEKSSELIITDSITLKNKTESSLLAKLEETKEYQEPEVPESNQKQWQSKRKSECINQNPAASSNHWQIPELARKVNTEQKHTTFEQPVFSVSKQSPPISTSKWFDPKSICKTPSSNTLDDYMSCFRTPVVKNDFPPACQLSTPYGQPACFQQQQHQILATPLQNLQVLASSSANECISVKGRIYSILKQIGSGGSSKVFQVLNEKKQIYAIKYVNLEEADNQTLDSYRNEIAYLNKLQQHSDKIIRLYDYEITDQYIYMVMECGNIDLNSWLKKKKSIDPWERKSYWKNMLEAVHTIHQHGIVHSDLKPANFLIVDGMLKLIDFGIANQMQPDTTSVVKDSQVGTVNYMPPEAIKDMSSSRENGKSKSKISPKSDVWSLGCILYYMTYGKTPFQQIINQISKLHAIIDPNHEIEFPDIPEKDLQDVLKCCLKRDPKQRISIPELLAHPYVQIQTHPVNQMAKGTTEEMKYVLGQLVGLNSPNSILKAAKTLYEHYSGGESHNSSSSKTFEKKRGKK

Compound | pIC50
CCC(O)Cn1cc(-c2ccc3cnc(Nc4ccc(C(=O)N5CC(OC)C5)cc4OC)cc3c2)cn1 (racemic) [Example 71, (4-((6-(1-(2-Hydroxybutyl)-1H-pyrazol-4-yl)isoquinolin-3-yl)amino)-3-methoxyphenyl)(3-methoxyazetidin-1-yl)methanone] | 8.40
COc1cc(C(=O)N2CC(OC)C2)ccc1Nc1cc2cc(-c3cnn(CC(O)C(C)C)c3)ccc2cn1 (racemic) [Example 73, (4-((6-(1-(2-Hydroxy-3-methylbutyl)-1H-pyrazol-4-yl)isoquinolin-3-yl)amino)-3-methoxy-phenyl)(3-methoxyazetidin-1-yl)methanone] | 8.40
COc1cc(C(=O)N2CC(OC)C2)ccc1Nc1cc2cc(-c3cnn(CC(O)C(F)(F)F)c3)ccc2cn1 (racemic) [Example 75, (3-Methoxy-4-((6-(1-(3,3,3-trifluoro-2-hydroxypropyl)-1H-pyrazol-4-yl)isoquinolin-3-yl)amino)-phenyl)(3-methoxyazetidin-1-yl)methanone] | 8.52
COc1cc(C(=O)N2CC(OC)C2)ccc1Nc1cc2cc(-c3cnn(C(C)C(C)(C)O)c3)ccc2cn1 (racemic) [Example 76, (4-((6-(1-(3-Hydroxy-3-methylbutan-2-yl)-1H-pyrazol-4-yl)isoquinolin-3-yl)amino)-3-methoxyphenyl)(3-methoxyazetidin-1-yl)methanone] | 8.30
COCC(O)Cn1cc(-c2ccc3cnc(Nc4ccc(C(=O)N5CC(OC)C5)cc4OC)cc3c2)cn1 (racemic) [Example 78, (4-((6-(1-(2-Hydroxy-3-methoxypropyl)-1H-pyrazol-4-yl)isoquinolin-3-yl)amino)-3-methoxyphenyl)(3-methoxyazetidin-1-yl)methanone] | 7.77
COCC(Cn1cc(-c2ccc3cnc(Nc4ccc(C(=O)N5CC(OC)C5)cc4OC)cc3c2)cn1)OC (racemic) [Example 79, (4-((6-(1-(2,3-Dimethoxypropyl)-1H-pyrazol-4-yl)isoquinolin-3-yl)amino)-3-methoxyphenyl)(3-methoxyazetidin-1-yl)methanone] | 8.05
COc1cc(C(=O)N2CC(OC)C2)ccc1Nc1cc2cc(-c3cnn(CC(O)CO)c3)ccc2cn1 (racemic) [Example 81, (4-((6-(1-(2,3-Dihydroxypropyl)-1H-pyrazol-4-yl)isoquinolin-3-yl)amino)-3-methoxyphenyl)(3-methoxyazetidin-1-yl)methanone] | 8.52
COc1cc(C(=O)N2CC(OC)C2)ccc1Nc1cc2cc(-c3cnn(C4COCC4O)c3)ccc2cn1 (racemic) [Example 82, (4-((6-(1-(4-Hydroxytetrahydrofuran-3-yl)-1H-pyrazol-4-yl)isoquinolin-3-yl)amino)-3-methoxyphenyl)(3-methoxyazetidin-1-yl)methanone] | 8.30
COc1cc(C(=O)N2CC(OC)C2)ccc1Nc1cc2cc(-c3cnn(C4CCCCC4O)c3)ccc2cn1 (racemic) [Example 85, (4-((6-(1-(2-Hydroxycyclohexyl)-1H-pyrazol-4-yl)isoquinolin-3-yl)amino)-3-methoxyphenyl)(3-methoxyazetidin-1-yl)methanone] | 7.82
COc1cc(-c2cnc(C)n2C)ccc1Nc1cc2cc(-c3cnco3)ccc2cn1 [Example 6, N-(4-(1,2-dimethyl-1H-imidazol-5-yl)-2-methoxyphenyl)-6-(oxazol-5-yl)isoquinolin-3-amine] | 8.40
COc1cc(-c2cnc(C)n2C)ccc1Nc1cc2cc(-c3ccncc3)ccc2cn1 [Example 7, N-(4-(1,2-dimethyl-1H-imidazol-5-yl)-2-methoxyphenyl)-6-(pyridin-4-yl)isoquinolin-3-amine] | 6.84
COc1cc(-c2cnc(C)n2C)ccc1Nc1cc2cc(-c3ccc(N(C)C)nc3)ccc2cn1 [Example 8, N-(4-(1,2 dimethyl-1H-imidazol-5-yl)-2-methoxyphenyl)-6-(6-(dimethylamino)pyridin-3-yl)isoquinolin-3-amine] | 6.97
COc1cc(-c2cnc(C)n2C)ccc1Nc1cc2cc(-c3sc(C)nc3C)ccc2cn1 [Example 13, N-(4-(1,2-dimethyl-1H-imidazol-5-yl)-2-methoxyphenyl)-6-(2,4-dimethylthiazol-5-yl)isoquinolin-3-amine] | 7.01

The next lines start with the values.

pIC50 | Compound
8.70 | COc1cc(-c2cnc(C)n2C)ccc1Nc1cc2cc(-c3cnn(CC(C)O)c3)ccc2cn1 (racemic) [Example 38, 1-(4-(3-((4-(1,2-Dimethyl-1H-imidazol-5-yl)-2-methoxyphenyl)amino)isoquinolin-6-yl)-1H-pyrazol-1-yl)propan-2-ol]
8.22 | COc1cc(-c2cnc(C)n2C)ccc1Nc1cc2cc(-c3cnn(CC4COC(C)(C)O4)c3)ccc2cn1 (racemic) [Example 40, 6-(1-((2,2-Dimethyl-1,3-dioxolan-4-yl)methyl)-1H-pyrazol-4-yl)-N-(4-(1,2-dimethyl-1H-imidazol-5-yl)-2-methoxyphenyl)isoquinolin-3-amine]
8.22 | COc1cc(-c2cnc(C)n2C)ccc1Nc1cc2cc(-c3cnn(C(C)C(C)(C)O)c3)ccc2cn1 (racemic) [Example 68, 3-(4-(3-((4-(1,2-Dimelhyl-1H-imidazol-5-yl)-2-methoxyphenyl)amino)isoquinolin-6-yl)-1H-pyrazol-1-yl)-2-methylbutan-2-ol]
8.52 | COc1cc(-c2cnc(C)n2C)ccc1Nc1cc2cc(-c3cnn(CC(C)O)c3)ccc2cn1 (single isomer, unassigned) [Example 98, 1-(4-(3-((4-(1,2-dimethyl-1H-imidazol-5-yl)-2-methoxyphenyl)amino)isoquinolin-6-yl)-1H-pyrazol-1-yl)propan-2-ol]
8.30 | COc1cc(-c2cnc(C)n2C)ccc1Nc1cc2cc(-c3cnn(CC(C)O)c3)ccc2cn1 (single isomer, unassigned) [Example 99, 1-(4-(3-((4-(1,2-dimethyl-1H-imidazol-5-yl)-2-methoxyphenyl)amino)isoquinolin-6-yl)-1H-pyrazol-1-yl)propan-2-ol]
8.70 | COc1cc(-c2cnc(C)n2C)ccc1Nc1cc2cc(-c3cnn(CC4CCOCC4)c3)ccc2cn1 [Example 1, N-(4-(1,2-dimethyl-1H-imidazol-5-yl)-2-methoxyphenyl)-6-(1-((tetrahydro-2H-pyran-4-yl)methyl)-1H-pyrazol-4-yl)isoquinolin-3-amine]
9.00 | COc1cc(-c2cnc(C)n2C)ccc1Nc1cc2cc(-c3cnn(CC4CC4)c3)ccc2cn1 [Example 2, 6-(1-(Cyclopropylmethyl)-1H-pyrazol-4-yl)-N-(4-(1,2-dimethyl-1H-imidazol-5-yl)-2-methoxyphenyl)isoquinolin-3-amine]
8.70 | COc1cc(-c2cnc(C)n2C)ccc1Nc1cc2cc(-c3cnn(CC(F)F)c3)ccc2cn1 [Example 3, 6-(1-(2,2-Difluoroethyl)-1H-pyrazol-4-yl)-N-(4-(1,2-dimethyl-1H-imidazol-5-yl)-2-methoxyphenyl)isoquinolin-3-amine]
6.96 | COc1cc(-c2cnc(C)n2C)ccc1Nc1cc2cc(-c3cnn(C4CCN(C(=O)OC(C)(C)C)CC4)c3)ccc2cn1 [Example 4, tert-Butyl 4-(4-(3-((4-(1,2-dimethyl-1H-imidazol-5-yl)-2-methoxyphenyl)amino)isoquinolin-6-yl)-1H-pyrazol-1-yl)piperidine-1-carboxylate]
8.30 | COc1cc(-c2cnc(C)n2C)ccc1Nc1cc2cc(-c3cnc(C)n3C)ccc2cn1 [Example 5, 6-(1,2-Dimethyl-1H-imidazol-5-yl)-N-(4-(1,2-dimethyl-1H-imidazol-5-yl)-2-methoxyphenyl)-isoquinolin-3-amine]
8.40 | COc1cc(-c2cnc(C)n2C)ccc1Nc1cc2cc(-c3cncs3)ccc2cn1 [Example 9, N-(4-(1,2-dimethyl-1H-imidazol-5-yl)-2-methoxyphenyl)-6-(thiazol-5-yl)isoquinolin-3-amine]
8.15 | CCn1cc(-c2ccc3cnc(Nc4ccc(-c5cnc(C)n5C)cc4OC)cc3c2)cn1 [Example 10, N-(4-(1,2-dimethyl-1H-imidazol-5-yl)-2-methoxyphenyl)-6-(1-ethyl-1H-pyrazol-4-yl)isoquinolin-3-amine]
8.70 | COc1cc(-c2cnc(C)n2C)ccc1Nc1cc2cc(-c3ccc(C)nc3)ccc2cn1 [Example 11, N-(4-(1,2-dimethyl-1H-imidazol-5-yl)-2-methoxyphenyl)-6-(6-methylpyridin-3-yl)isoquinolin-3-amine]
6.15 | COc1cc(-c2cnc(C)n2C)ccc1Nc1cc2cc(-c3ccc(N(C)C(=O)OC(C)(C)C)nc3)ccc2cn1 [Example 12, tert-Butyl (5-(3-((4-(1,2-dimethyl-1H-imidazol-5-yl)-2-methoxyphenyl)amino)isoquinolin-6-yl)pyridin-2-yl)(methyl)carbamate]
7.70 | COCCn1cc(-c2ccc3cnc(Nc4ccc(-c5cnc(C)n5C)cc4OC)cc3c2)cn1 [Example 14, N-(4-(1,2-dimethyl-1H-imidazol-5-yl)-2-methoxyphenyl)-6-(1-(2-methoxyethyl)-1H-pyrazol-4-yl)isoquinolin-3-amine]
8.52 | COc1cc(-c2cnc(C)n2C)ccc1Nc1cc2cc(-c3cnn(C(C)C)c3)ccc2cn1 [Example 15, N-(4-(1,2-dimethyl-1H-imidazol-5-yl)-2-methoxyphenyl)-6-(1-isopropyl-1H-pyrazol-4-yl)isoquinolin-3-amine]
8.52 | COc1cc(-c2cnc(C)n2C)ccc1Nc1cc2cc(-c3cccnc3)ccc2cn1 [Example 16, N-(4-(1,2-dimethyl-1H-imidazol-5-yl)-2-methoxyphenyl)-6-(pyridin-3-yl)isoquinolin-3-amine]
